Source: publication PMC12356528, “Modular Synthetic Platform for the Elaboration of Fragments in Three Dimensions for Fragment-Based Drug Discovery” (Journal of the American Chemical Society, 2025)
≈ marks a conversion by molar mass, not a printed value. Where two headings read alike, the source gives them in different places.

Tests used:
[1] = DMPK Wave1: metabolic stability in rat hepatocytes; assay type: in vitro ADME; conditions: rat hepatocytes (RH)
[2] = DMPK Wave1: metabolic stability in human liver microsomes; assay type: in vitro ADME; conditions: human liver microsomes (HLM)
[3] = DMPK Wave1: lipophilicity (measured logD); assay type: physicochemical
[4] = DMPK Wave1: aqueous solubility; assay type: physicochemical

For `Cc1noc(C)c1S(=O)(=O)N1CCC2(CC1)CC2c1cnc2[nH]ccc2c1` (stereo not drawn) [Compound 78], the “metabolic stability (in words)” value [1] was “lower metabolic stability”, the “metabolic stability (in words)” value [2] was “lower metabolic stability” and the logD [3] was 3.6. The solubility [4] was 49 µM (≈ 18.9 µg/mL).
With `COc1cc([C@H]2[C@@H]3CN(C(=O)Cc4c[nH]c5ccccc45)CC[C@@H]32)ccn1` [Compound 81] the “metabolic stability (in words)” value [1] was “lower metabolic stability”, the “metabolic stability (in words)” value [2] was “lower metabolic stability” and the logD [3] was 3.1. It also gave a solubility [4] of 100 µM (≈ 36.1 µg/mL).
With `c1ncc(C2CC23CCN(c2ccc4c(c2)OCO4)CC3)cn1` (stereo not drawn) [Compound 82] the “metabolic stability (in words)” value [1] was “good metabolic stability”, the “metabolic stability (in words)” value [2] was “good metabolic stability” and the logD [3] was 0.1. It also gave a solubility [4] of 887 µM (≈ 274 µg/mL).
With `CS(=O)(=O)N1CCC2CC21c1cncnc1` (stereo not drawn) [Compound 86] the logD [3] was -0.4 and the solubility [4] was 881 µM (≈ 211 µg/mL).
`CS(=O)(=O)N1CCC2(CC1)CC2c1cncnc1` (stereo not drawn) [Compound 87] showed a logD [3] of 0.2 and a solubility [4] of 931 µM (≈ 249 µg/mL).
`CS(=O)(=O)N1CC2(CC2c2cncnc2)C1` (stereo not drawn) [Compound 88] gave a logD [3] of -0.6 and a solubility [4] of 913 µM (≈ 218 µg/mL).
In the case of `CS(=O)(=O)N1C2CCC1CC1(C2)CC1c1cncnc1` (stereo not drawn) [Compound 91], the logD [3] was 0.5 and the solubility [4] was > 981 µM.
Work on `CS(=O)(=O)N1CCC[C@@H]2[C@@H](c3cncnc3)[C@@H]21` [Compound 94] yielded a logD [3] of 0.1 and a solubility ([4]; aqueous) of 823 µM (≈ 208 µg/mL).
Work on `C=CC(=O)N1C[C@H](Nc2ncnc3[nH]ccc23)CC[C@@H]1C` [Ritlecitinib, 1-((2S,5R)-5-((7H-Pyrrolo[2,3-d]pyrimidin-4-yl)amino)-2-methylpiperidin-1-yl)prop-2-en-1-one, reference compound] yielded a logD [3] of 1.6 and a solubility ([4]; aqueous) of 996 µM (≈ 284 µg/mL).
